For 33 molecules, IC50 results are on record in US20260184691A1, “INHIBITORS AND DEGRADERS OF PIP4K PROTEIN” (Larkspur Biosciences, Inc., priority 2022, published 2026).

In the experiment the target is T1, Human PIP4K2C (Homo sapiens, UniProt Q8TBX8).
T1 construct: purchased Eurofins DiscoverX 87-0007-1094
T1 sequence (Q8TBX8 1-421): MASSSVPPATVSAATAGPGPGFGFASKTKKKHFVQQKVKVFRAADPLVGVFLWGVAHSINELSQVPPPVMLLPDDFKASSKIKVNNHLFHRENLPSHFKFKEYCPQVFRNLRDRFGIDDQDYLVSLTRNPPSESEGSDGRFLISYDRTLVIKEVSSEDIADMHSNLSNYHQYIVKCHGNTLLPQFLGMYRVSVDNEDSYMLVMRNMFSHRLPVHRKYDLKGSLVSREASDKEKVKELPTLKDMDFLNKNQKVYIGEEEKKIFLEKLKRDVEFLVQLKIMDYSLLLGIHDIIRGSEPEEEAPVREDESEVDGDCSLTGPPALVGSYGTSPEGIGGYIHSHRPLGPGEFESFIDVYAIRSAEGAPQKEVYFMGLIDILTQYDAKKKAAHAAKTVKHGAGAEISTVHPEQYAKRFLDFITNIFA
The experiment is described as follows: Enzyme binding assay (KINOMEscan), active site-directed competition binding. As to conditions: 11-point dose response, duplicate, top concentration 5 micromolar; read-out: Pip4k2c Kd: IC50. As to the method:
PIP4K2C binding constants disclosed herein were determined using the proprietary Human PIP4K2C binding assay (Catalog number 87-0007-1094, Eurofins DiscoverX, San Diego, CA). This assay measures active site-directed competition binding to an immobilized ligand (see https://doi.org/10.1038/nbt1068, herein incorporated by reference in its entirety). Experiments were conducted using an 11-point dose response curve, in duplicate, with a top starting concentration of 5 micromolar; the Levenberg-Marquardt algorithm was used to fit a Hill equation to dose-response data to calculate IC50 values (see Table 5).

One may read the IC50 as the point on the concentration scale where inhibition reaches its midpoint. For the molecule `O=C1CCCN1c1cncc(Nc2ncc(Cl)c(N3CCC[C@@H](c4ccccn4)C3)n2)c1` (single isomer, unassigned) [Compound 124], the IC50 is less than 500 nM.
As for `O=C1CCCN1c1cncc(Nc2ncc(Cl)c(N3CCC[C@H](c4ccccn4)C3)n2)c1` (single isomer, unassigned) [Compound 125], the figure is less than 500 nM; as for `O=C1CCCN1c1cncc(Nc2ncc(Cl)c(N3C(=O)CC[C@H]3c3ccccc3)n2)c1` [29, Enant A], less than 500 nM; as for `O=C1CCCN1c1cncc(Nc2ncc(Cl)c(N3C(=O)CC[C@@H]3c3ccccc3)n2)c1` [29, Enant B], 500 to 1000 nM.
Next, `O=C1N(c2cncc(Nc3ncc(Cl)c(-c4cccc(-c5ccccc5)c4)n3)c2)CCC12CCNCC2` [Compound 1, 2-(5-((4-([1,1′-biphenyl]-3-yl)-5-chloropyrimidin-2-yl)amino)pyridin-3-yl)-2,8-diazaspiro[4.5]decan-1-one]: less than 500 nM; `O=C1CCCN1c1cncc(Nc2ncc(Cl)c(-c3cccc(-c4ccc(Cl)c(Cl)c4)c3)n2)c1` [Compound 2, 1-(5-((5-chloro-4-(3′,4′-dichloro-[1,1′-biphenyl]-3-yl)pyrimidin-2-yl)amino)pyridin-3-yl)pyrrolidin-2-one]: less than 500 nM; `Cc1ccc(-c2cccc(-c3nc(Nc4cncc(N5CCCC5=O)c4)ncc3Cl)c2)cc1` [Compound 3, 1-(5-((5-chloro-4-(4′-methyl-[1,1′-biphenyl]-3-yl)pyrimidin-2-yl)amino)pyridin-3-yl)pyrrolidin-2-one]: less than 500 nM.
Next, `O=C1CCCN1c1cncc(Nc2ncc(Cl)c(-c3cccc(-c4ccc(Cl)cc4)c3)n2)c1` [Compound 4, 1-(5-((5-chloro-4-(4′-chloro-[1,1′-biphenyl]-3-yl)pyrimidin-2-yl)amino)pyridin-3-yl)pyrrolidin-2-one]: less than 500 nM; `COc1ccc(-c2cccc(-c3nc(Nc4cncc(N5CCCC5=O)c4)ncc3Cl)c2)cc1` [Compound 5, 1-(5-((5-chloro-4-(4′-methoxy-[1,1′-biphenyl]-3-yl)pyrimidin-2-yl)amino)pyridin-3-yl)pyrrolidin-2-one]: less than 500 nM; `O=C1CCCN1c1cncc(Nc2ncc(Cl)c(-c3ccc(Cl)c(-c4ccccc4)c3)n2)c1` [Compound 6, 1-(5-((5-chloro-4-(6-chloro-[1,1′-biphenyl]-3-yl)pyrimidin-2-yl)amino)pyridin-3-yl)pyrrolidin-2-one]: less than 500 nM.
On to `Cc1ccc(-c2nc(Nc3cncc(N4CCCC4=O)c3)ncc2Cl)cc1-c1ccccc1` [Compound 7, 1-(5-((5-chloro-4-(6-methyl-[1,1′-biphenyl]-3-yl)pyrimidin-2-yl)amino)pyridin-3-yl)pyrrolidin-2-one], for which the IC50 was less than 500 nM.
Next, `COc1ccc(-c2nc(Nc3cncc(N4CCCC4=O)c3)ncc2Cl)cc1-c1ccccc1` [Compound 8, 1-(5-((5-chloro-4-(6-methoxy-[1,1′-biphenyl]-3-yl)pyrimidin-2-yl)amino)pyridin-3-yl)pyrrolidin-2-one]: less than 500 nM.
Next, `O=C1CCCN1c1cncc(Nc2ncc(Cl)c(-c3cccc(-c4ccccn4)c3)n2)c1` [Compound 9, 1-(5-((5-chloro-4-(3-(pyridin-2-yl)phenyl)pyrimidin-2-yl)amino)pyridin-3-yl)pyrrolidin-2-one]: less than 500 nM; `Cc1ccc(-c2ccccc2)cc1-c1nc(Nc2cncc(N3CCCC3=O)c2)ncc1Cl` [Compound 10, 1-(5-((5-chloro-4-(4-methyl-[1,1′-biphenyl]-3-yl)pyrimidin-2-yl)amino)pyridin-3-yl)pyrrolidin-2-one]: less than 500 nM.
Next, `Cc1cc(-c2ccccc2)cc(-c2nc(Nc3cncc(N4CCCC4=O)c3)ncc2Cl)c1` [Compound 11, 1-(5-((5-chloro-4-(5-methyl-[1,1′-biphenyl]-3-yl)pyrimidin-2-yl)amino)pyridin-3-yl)pyrrolidin-2-one]: less than 500 nM; `O=C1CCCN1c1cncc(Nc2ncc(Cl)c(-c3cccc(C4CC4)c3)n2)c1` [Compound 12, 1-(5-((5-chloro-4-(3-cyclopropylphenyl)pyrimidin-2-yl)amino)pyridin-3-yl)pyrrolidin-2-one]: less than 500 nM; `O=C1CCCN1c1cncc(Nc2ncc(Cl)c(-c3ccc(C4CC4)cc3)n2)c1` [Compound 13, 1-(5-((5-chloro-4-(4-cyclopropylphenyl)pyrimidin-2-yl)amino)pyridin-3-yl)pyrrolidin-2-one]: less than 500 nM.
As for `O=C1CCCN1c1cncc(Nc2ncc(Cl)c(-c3cccc(-c4ccccc4Cl)c3)n2)c1` [Compound 14, 1-(5-((5-chloro-4-(2′-chloro-[1,1′-biphenyl]-3-yl)pyrimidin-2-yl)amino)pyridin-3-yl)pyrrolidin-2-one], the IC50 was less than 500 nM.
As for `Cc1ccccc1-c1cccc(-c2nc(Nc3cncc(N4CCCC4=O)c3)ncc2Cl)c1` [Compound 15, 1-(5-((5-chloro-4-(2′-methyl-[1,1′-biphenyl]-3-yl)pyrimidin-2-yl)amino)pyridin-3-yl)pyrrolidin-2-one], the figure is less than 500 nM; as for `O=C1CCCN1c1cncc(Nc2ncc(Cl)c(-c3cccc(-c4cccnc4)c3)n2)c1` [Compound 16, 1-(5-((5-chloro-4-(3-(pyridin-3-yl)phenyl)pyrimidin-2-yl)amino)pyridin-3-yl)pyrrolidin-2-one], less than 500 nM.
As for `O=C1CCCN1c1cncc(Nc2ncc(Cl)c(-c3cccc(-c4cnccn4)c3)n2)c1` [Compound 17, 1-(5-((5-chloro-4-(3-(pyrazin-2-yl)phenyl)pyrimidin-2-yl)amino)pyridin-3-yl)pyrrolidin-2-one], the figure is less than 500 nM; as for `COc1cc(-c2ccccc2)cc(-c2nc(Nc3cncc(N4CCCC4=O)c3)ncc2Cl)c1` [Compound 18, 1-(5-((5-chloro-4-(5-methoxy-[1,1′-biphenyl]-3-yl)pyrimidin-2-yl)amino)pyridin-3-yl)pyrrolidin-2-one], less than 500 nM; as for `O=C1CCCN1c1cncc(Nc2ncc(Cl)c(-c3cccc(C4CCCCC4)c3)n2)c1` [Compound 19, 1-(5-((5-chloro-4-(3-cyclohexylphenyl)pyrimidin-2-yl)amino)pyridin-3-yl)pyrrolidin-2-one], less than 500 nM.
Next, `O=C1CCCN1c1cncc(Nc2ncc(Cl)c(-c3cc(-c4ccccc4)ccc3Cl)n2)c1` [Compound 20, 1-(5-((5-chloro-4-(4-chloro-[1,1′-biphenyl]-3-yl)pyrimidin-2-yl)amino)pyridin-3-yl)pyrrolidin-2-one]: less than 500 nM.
As for `COc1ccc(-c2ccccc2)cc1-c1nc(Nc2cncc(N3CCCC3=O)c2)ncc1Cl` [Compound 21, 1-(5-((5-chloro-4-(4-methoxy-[1,1′-biphenyl]-3-yl)pyrimidin-2-yl)amino)pyridin-3-yl)pyrrolidin-2-one], the IC50 is less than 500 nM.
Consider `O=C1CCCN1c1cncc(Nc2ncc(Cl)c(-c3cc(Cl)cc(-c4ccccc4)c3)n2)c1` [Compound 22, 1-(5-((5-chloro-4-(5-chloro-[1,1′-biphenyl]-3-yl)pyrimidin-2-yl)amino)pyridin-3-yl)pyrrolidin-2-one], for which the IC50 was less than 500 nM.
As for `O=C1CCCN1c1cncc(Nc2ncc(Cl)c(N3CCCC(c4ccccc4)C3)n2)c1` (stereo not drawn) [Compound 24, 1-(5-((5-chloro-4-(3-phenylpiperidin-1-yl)pyrimidin-2-yl)amino)pyridin-3-yl)pyrrolidin-2-one], the figure is less than 500 nM; as for `O=C1CCCN1c1cncc(Nc2ncc(Cl)c(-c3cccc(C4CCNCC4)c3)n2)c1` [Compound 26, 1-(5-((5-chloro-4-(3-(piperidin-4-yl)phenyl)pyrimidin-2-yl)amino)pyridin-3-yl)pyrrolidin-2-one], less than 500 nM.
Next, `CN1CCC(c2cccc(-c3nc(Nc4cncc(N5CCCC5=O)c4)ncc3Cl)c2)CC1` [Compound 27, 1-(5-((5-chloro-4-(3-(1-methylpiperidin-4-yl)phenyl)pyrimidin-2-yl)amino)pyridin-3-yl)pyrrolidin-2-one]: less than 500 nM.
Next, `CC(=O)N1CCC(c2cccc(-c3nc(Nc4cncc(N5CCCC5=O)c4)ncc3Cl)c2)CC1` [Compound 28, 1-(5-((4-(3-(1-acetylpiperidin-4-yl)phenyl)-5-chloropyrimidin-2-yl)amino)pyridin-3-yl)pyrrolidin-2-one]: less than 500 nM.
As to `O=C1CCCN1c1cncc(Nc2ncc(Cl)c(-c3cccc(C4CCCNC4)c3)n2)c1` (stereo not drawn) [Compound 30, 1-(5-((5-chloro-4-(3-(piperidin-3-yl)phenyl)pyrimidin-2-yl)amino)pyridin-3-yl)pyrrolidin-2-one], the IC50 is less than 500 nM.
Next, `CN1CCN(c2cncc(Nc3ncc(Cl)c(-c4cccc(-c5ccccc5)c4)n3)c2)C1=O` [Compound 32, 1-(5-((4-([1,1′-biphenyl]-3-yl)-5-chloropyrimidin-2-yl)amino)pyridin-3-yl)-3-methylimidazolidin-2-one]: less than 500 nM; `CN1CCCC(c2cccc(-c3nc(Nc4cncc(N5CCCC5=O)c4)ncc3Cl)c2)C1` (stereo not drawn) [Compound 33, 1-(5-((5-chloro-4-(3-(1-methylpiperidin-3-yl)phenyl)pyrimidin-2-yl)amino)pyridin-3-yl)pyrrolidin-2-one]: less than 500 nM.
